The values that follow come from patent US7998978B2 (Pfizer Inc., priority 2006, dated 2011).

The target of one assay is T1, JNK1α1 (Homo sapiens, UniProt P45983).
T1 construct: catalytic domain containing amino acids 1-364 and N-terminal hexahistidine tag; hexahistidine (His6) (N); made in house; host or cells: E. coli BL21 (DE3)
T1 sequence (P45983 1-364): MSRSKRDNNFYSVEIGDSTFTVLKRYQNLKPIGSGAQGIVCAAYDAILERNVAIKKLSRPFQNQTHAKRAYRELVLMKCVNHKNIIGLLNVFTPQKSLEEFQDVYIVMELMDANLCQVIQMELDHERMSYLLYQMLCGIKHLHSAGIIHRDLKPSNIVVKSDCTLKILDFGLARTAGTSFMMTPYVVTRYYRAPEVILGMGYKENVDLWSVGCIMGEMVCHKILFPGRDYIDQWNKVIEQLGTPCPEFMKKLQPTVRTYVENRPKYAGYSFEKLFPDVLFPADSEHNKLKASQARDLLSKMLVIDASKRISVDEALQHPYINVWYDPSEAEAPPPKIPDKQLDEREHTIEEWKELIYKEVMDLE
Put plainly: Coupled spectrophotometric (PK/LDH) JNK1α1 assay: % inhibition and Ki determination. It is filed as biochemical. Conditions: @1 uM; read-out: % Inhibition JNK-1. The method in brief:
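Initial rates were taken from the absorbance decrease at 340 nm at 30° C. Ki was fitted with a tight-binding model over 11 concentrations (top 100 μM); single-point inhibition was tested at 1 or 10 μM.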
For the compound `CNC(=O)c1ccc2c(c1)CCO[C@H]2CCOc1ccc2cnc(N[C@H]3CC[C@H](O)CC3)nc2c1` [Example 292, (1S)-1-[2-({2-[(trans-4-hydroxycyclohexyl)amino]quinazolin-7-yl}oxy)ethyl]-N-methyl-3,4-dihydro-1H-isochromene-6-carboxamide], the inhibition at 1 µM was 54%.

Consider `O=C1CN2C[C@@H](Oc3ccc4cnc(N[C@H]5CC[C@H](O)CC5)nc4c3)CC[C@H]2CN1` [Example 287, (7S,9aS)-7-({2-[(trans-4-hydroxycyclohexyl)amino]quinazolin-7-yl}oxy)hexahydro-2H-pyrido[1,2-a]pyrazin-3(4H)-one], for which the inhibition at 1 µM amounted to 62%.

`O=C(NCCO)c1ccc2cnc(NC3CCCC3)nc2c1` [Example 427, 2-(cyclopentylamino)-N-(2-hydroxyethyl)quinazoline-7-carboxamide]: the inhibition at 1 µM is 21%.

For `O[C@H]1CC[C@H](Nc2ncc3ccc(OCc4ccccc4CN4CCCC4)cc3n2)CC1` [Example 297, trans-4-[(7-{[2-(pyrrolidin-1-ylmethyl)benzyl]oxy}quinazolin-2-yl)amino]cyclohexanol], the inhibition at 1 µM turned out to be 28%.

For the compound `O=C(NCc1ccc[nH]c1=O)c1cccc2cnc(N[C@H]3CC[C@H](O)CC3)nc12` [Example 477, 2-[(trans-4-hydroxycyclohexyl)amino]-N-[(2-oxo-1,2-dihydropyridin-3-yl)methyl]quinazoline-8-carboxamide], the inhibition at 1 µM came to 14%.

Turning to `O=C(N[C@H](CO)CC1CCCCC1)c1ccc2cnc(NC3CCC3)nc2c1` [Example 428, 2-(cyclobutylamino)-N-[(1S)-2-cyclohexyl-1-(hydroxymethyl)ethyl]quinazoline-7-carboxamide], the inhibition at 1 µM stood at 17%.

The assay is the same for the next values; noted with them: @10 uM; read-out: % Inhibition JNK-1.
For the compound `Cc1nnc(C(C)NC(=O)c2cccc3cnc(N[C@H]4CC[C@H](O)CC4)nc23)[nH]1` (stereo partly drawn) [Example 510, 2-[(trans-4-hydroxycyclohexyl)amino]-N-[1-(5-methyl-4H-1,2,4-triazol-3-yl)ethyl]quinazoline-8-carboxamide], the inhibition at 10 µM came to 25%.

As for `CC(=O)N1CCC(CNC(=O)c2cccc3cnc(N[C@H]4CC[C@H](O)CC4)nc23)CC1` [Example 505, N-[(1-acetylpiperidin-4-yl)methyl]-2-[(trans-4-hydroxycyclohexyl)amino]quinazoline-8-carboxamide], the inhibition at 10 µM was 58%.

`Cc1ccn2cc(CCNC(=O)c3cccc4cnc(N[C@H]5CC[C@H](O)CC5)nc34)nc2n1` [Example 524, 2-[(trans-4-hydroxycyclohexyl)amino]-N-[2-(7-methylimidazo[1,2-a]pyrimidin-2-yl)ethyl]quinazoline-8-carboxamide]: the inhibition at 10 µM stood at 47%.

Staying with this assay, now noted: JNK-1.
In the case of `CNC(=O)N1CCC(NC(=O)c2cccc3cnc(N[C@H]4CC[C@H](O)CC4)nc23)CC1` [Example 467, 2-[(trans-4-hydroxycyclohexyl)amino]-N-{1-[(methylamino)carbonyl]piperidin-4-yl}quinazoline-8-carboxamide], the Ki worked out at 2050 nM.

Compound `O=C(NC1(CO)CCCC1)c1cccc2cnc(N[C@H]3CC[C@H](O)CC3)nc12` [Example 454, 2-[(trans-4-hydroxycyclohexyl)amino]-N-[1-(hydroxymethyl)cyclopentyl]quinazoline-8-carboxamide] showed a Ki of 221 nM.

On to `CCN(CC)CCN1CCC(Nc2cc3cc(-c4cn[nH]c4)ccc3cn2)CCC1=O` (stereo not drawn) [Example 228, 1-[2-(diethylamino)ethyl]-5-{[6-(1H-pyrazol-4-yl)isoquinolin-3-yl]amino}azepan-2-one], for which the inhibitory constant (Ki) was found to be 11500 nM.

For `O[C@H]1CC[C@H](Nc2ncc3cccc(OC4CCOCC4)c3n2)CC1` [Example 169, trans-4-{[8-(tetrahydro-2H-pyran-4-yloxy)quinazolin-2-yl]amino}cyclohexanol], the Ki came out at 231 nM.

Turning to `C[C@@H](CO)NC(=O)c1ccc2cnc(NC3CCCC3)nc2c1` [Example 418, 2-(cyclopentylamino)-N-[(1S)-2-hydroxy-1-methylethyl]quinazoline-7-carboxamide], the affinity, expressed as Ki, was 1720 nM.

`O=C(NC1CCOCC1)c1cccc2cnc(N[C@H]3CC[C@H](O)CC3)nc12` [Example 113, 2-[(trans-4-hydroxycyclohexyl)amino]-N-(tetrahydro-2H-pyran-4-yl)quinazoline-8-carboxamide]: the affinity, expressed as Ki, was 271 nM. This Ki lies about 6.3-fold lower than the previous one.

The compound `O=C(N[C@H](CO)Cc1c[nH]cn1)c1ccc2cnc(N[C@H]3CC[C@H](O)CC3)nc2c1` [Example 417, 2-[(trans-4-hydroxycyclohexyl)amino]-N-[(1S)-2-hydroxy-1-(1H-imidazol-4-ylmethyl)ethyl]quinazoline-7-carboxamide] gave a Ki of 1680 nM.

In turn, `C[C@@H](CO)NC(=O)c1cccc2cnc(N[C@H]3CC[C@H](O)CC3)nc12` [Example 122, 2-[(trans-4-hydroxycyclohexyl)amino]-N-[(1S)-2-hydroxy-1-methylethyl]quinazoline-8-carboxamide] yielded a Ki of 82 nM. This Ki lies about 20-fold lower than the previous one.

The compound `O=C(CC1CCOCC1)Nc1cc2cc(-c3cn[nH]c3)ccc2cn1` [Example 7, N-[6-(1H-pyrazol-4-yl)isoquinolin-3-yl]-2-(tetrahydro-2H-pyran-4-yl)acetamide] displayed a Ki of 20 nM.

Consider `Cc1ccc2cnc(N[C@H]3CC[C@H](O)CC3)nc2c1OCC(=O)NC(C)C` [Example 208, 2-({2-[(trans-4-hydroxycyclohexyl)amino]-7-methylquinazolin-8-yl}oxy)-N-isopropylacetamide], for which the affinity corresponds to a Ki of 1130 nM.

In the case of `CC[C@@H](CO)NC(=O)c1cccc2cnc(N[C@H]3CC[C@H](O)CC3)nc12` [Example 441, 2-[(trans-4-hydroxycyclohexyl)amino]-N-[(1S)-1-(hydroxymethyl)propyl]quinazoline-8-carboxamide], the inhibition constant (Ki) turned out to be 57 nM.

On to `Cc1ccc2c(c1)CCC2C(=O)Nc1cc2cc(-c3cn[nH]c3)ccc2cn1` (stereo not drawn) [Example 21, 5-methyl-N-[6-(1H-pyrazol-4-yl)isoquinolin-3-yl]indane-1-carboxamide], for which the inhibition constant Ki is over 50 nM.

The compound `O=C(NC(CO)c1ccccc1F)c1ccc2cnc(N[C@H]3CC[C@H](O)CC3)nc2c1` (stereo partly drawn) [Example 98, N-[1-(2-fluorophenyl)-2-hydroxyethyl]-2-[(trans-4-hydroxycyclohexyl)amino]quinazoline-7-carboxamide] displayed a Ki of 33 nM. This counts as double-digit nanomolar.

For the compound `O=C(NCC1CCOC1)c1cccc2cnc(N[C@H]3CC[C@H](O)CC3)nc12` (stereo partly drawn) [Example 117, 2-[(trans-4-hydroxycyclohexyl)amino]-N-(tetrahydrofuran-3-ylmethyl)quinazoline-8-carboxamide], the inhibition constant (Ki) turned out to be 250 nM.

Take `O[C@H]1CC[C@H](Nc2ncc3cccc(OCC4CCCCO4)c3n2)CC1` (stereo partly drawn) [Example 166, trans-4-{[8-(tetrahydro-2H-pyran-2-ylmethoxy)quinazolin-2-yl]amino}cyclohexanol]: the Ki was found to be 296 nM.

In turn, `CC(C)(C)OC(=O)N1C[C@H](C(=O)Nc2cc3cc(-c4cn[nH]c4)ccc3cn2)[C@@H](c2ccccc2)C1` [Example 36] came in with a Ki of 8 nM.

As for `O=C(NCC1(O)CCCCC1)c1ccc2cnc(N[C@H]3CC[C@H](O)CC3)nc2c1` [Example 327, 2-[(trans-4-hydroxycyclohexyl)amino]-N-[(1-hydroxycyclohexyl)methyl]quinazoline-7-carboxamide], the Ki is 254 nM.

`O=C(NCCc1ccccc1)c1ccc2cnc(N[C@H]3CC[C@H](O)CC3)nc2c1` [Example 63, 2-[(trans-4-hydroxycyclohexyl)amino]-N-(2-phenylethyl)quinazoline-7-carboxamide] displayed a Ki of 460 nM.

As for `COc1ccc(CCC(=O)Nc2cc3cc(-c4cn[nH]c4)ccc3cn2)cc1` [Example 20, 3-(4-methoxyphenyl)-N-[6-(1H-pyrazol-4-yl)isoquinolin-3-yl]propanamide], the inhibitory constant (Ki) is 44 nM. Compared with the last compound, the Ki is about 10-fold lower.

`O[C@H]1CC[C@H](Nc2ncc3cccc(O[C@H]4CCCN(Cc5ccccn5)C4)c3n2)CC1` [Example 240, trans-4-[(8-{[1-(pyridin-2-ylmethyl)piperidin-3-yl]oxy}quinazolin-2-yl)amino]cyclohexanol] displayed an inhibition constant Ki of 79 nM.

The compound `c1cc(CNc2cc3cc(-c4cn[nH]c4)ccc3cn2)cc(-c2cncnc2)c1` [Example 223, 6-(1H-pyrazol-4-yl)-N-(3-pyrimidin-5-ylbenzyl)isoquinolin-3-amine] yielded an inhibitory constant (Ki) of 3280 nM. Compared with the last compound, the Ki is about 42-fold higher.

`O=C(NCc1ccccc1)c1ccc2cnc(N[C@H]3CC[C@H](O)CC3)nc2c1` [Example 81, N-benzyl-2-[(trans-4-hydroxycyclohexyl)amino]quinazoline-7-carboxamide] registered an inhibition constant (Ki) of 63 nM.

Turning to `CC[C@@H](CO)NC(=O)c1ccc2cnc(NC(C)C)nc2c1` [Example 411, N-[(1S)-1-(hydroxymethyl)propyl]-2-(isopropylamino)quinazoline-7-carboxamide], the affinity, expressed as Ki, was 1100 nM. This Ki is about 17-fold higher than that of the compound before.

As for `CC(O)c1cccc(NC(=O)c2cccc3cnc(N[C@H]4CC[C@H](O)CC4)nc23)n1` (stereo partly drawn) [Example 126, 2-[(trans-4-hydroxycyclohexyl)amino]-N-[6-(1-hydroxyethyl)pyridin-2-yl]quinazoline-8-carboxamide], the inhibitory constant (Ki) worked out at 382 nM.

Compound `O=C(N[C@@H]1CCCC[C@@H]1CO)c1cccc2cnc(N[C@H]3CC[C@H](O)CC3)nc12` [Example 446, 2-[(trans-4-hydroxycyclohexyl)amino]-N-[(1R,2S)-2-(hydroxymethyl)cyclohexyl]quinazoline-8-carboxamide] had an inhibition constant Ki of 112 nM. Against the preceding compound, the Ki is about 3.4-fold lower.

As for `CC(C)(CN1CCOCC1)NC(=O)c1cccc2cnc(N[C@H]3CC[C@H](O)CC3)nc12` [Example 105, N-(1,1-dimethyl-2-morpholin-4-ylethyl)-2-[(trans-4-hydroxycyclohexyl)amino]quinazoline-8-carboxamide], the affinity corresponds to a Ki of 703 nM.

For `CCC(=O)N[C@H]1CC[C@H](Nc2ncc3cccc(OC4CCOC4)c3n2)CC1` (stereo partly drawn) [Example 185, N-(trans-4-{[8-(tetrahydrofuran-3-yloxy)quinazolin-2-yl]amino}cyclohexyl)propanamide], the Ki worked out at 885 nM.
